Measurements from patent US20230113609A1, “SSTR5 ANTAGONISTS” (Kallyope, Inc., priority 2019, published 2023).
pIC50: −log10 of the molar value.

Molecular target: T1, human SSTR5 (Homo sapiens, UniProt P35346)
T1 construct: expressed in transfected cells
Assay: Inositol phosphate accumulation assay (IP1 HTRF, antagonist mode)
Format: cell-based
Conditions: CHO-K1 cells co-expressing human SSTR5 with Gqi5, SST28 agonist at concentration generating 90% of full activation
Source text: CHO-K1 cells stably co-expressing human SSTR5 with Gqi5 were developed using Jump-In technology from Thermo-Fisher. Gqi5 is the mouse G alpha q protein, that was modified to interact with Gi-coupled GPCRs as described previously (Coward, P.; Chan, S. D.; Wada, H. G.; Humphries, G. M.; Conklin, B. R. Chimeric G proteins Allow a High-Throughput Signaling Assay of Gi-Coupled Receptors. Anal Biochem. 1999, 270(2),242-248).
Co-expression of Gqi5 with SSTR5 allowed monitoring of SSTR5 activity by following IP1 accumulation. The assay was performed in a 384-well plate format using the IP1 assay kit from Cis-Bio in an antagonist mode, i.e., pre-incubation with antagonist following by receptor activation by agonist at a concentration generating 90% of full activation. Frozen cells expressing human SSTR5 were thawed, washed, and then plated in DMEM supplemented with 10% FBS and non-essential amino acids. 40 μL of 2.5×10^5 cells/mL were plated on a Poly D-Lysine coated 384-well white plate. The cells were then incubated for 16 hr. at 37° C/5% CO2. After 16 hour the medium was removed, and 10 μL of stimulation buffer was added to the cells. Test compounds were dissolved in DMSO at concentrations 2000-fold that of the final assay concentrations. 7.5 nLcompound solutions were transferred to the cell plates using a Labcyte Echo® acoustic liquid handler. The plates were then incubated for 15 minutes at 37° C/5%CO2. After the first incubation, 5 μL of 30 nM SST28 were added to the cells, and the cells were incubated for 90 minutes at 37° C/5%CO2. 5 μL of detection buffer (prepared as described in the IP-1 kit) was added to each well, and the plates were incubated at RT for 1 hour.
TR-FRET was measured using a ClarioSTAR plate reader, calculating the ratio between emissions at 665 nm and 620 nm (HTRF ratio). The HTRF ratio for positive (Max) and negative (Min) controls were used to normalize HTRF data and generate values for % inhibition. IC50 and maximal inhibition values were determined using a standard 4-parameter fit.

T1 sequence (P35346 whole entry): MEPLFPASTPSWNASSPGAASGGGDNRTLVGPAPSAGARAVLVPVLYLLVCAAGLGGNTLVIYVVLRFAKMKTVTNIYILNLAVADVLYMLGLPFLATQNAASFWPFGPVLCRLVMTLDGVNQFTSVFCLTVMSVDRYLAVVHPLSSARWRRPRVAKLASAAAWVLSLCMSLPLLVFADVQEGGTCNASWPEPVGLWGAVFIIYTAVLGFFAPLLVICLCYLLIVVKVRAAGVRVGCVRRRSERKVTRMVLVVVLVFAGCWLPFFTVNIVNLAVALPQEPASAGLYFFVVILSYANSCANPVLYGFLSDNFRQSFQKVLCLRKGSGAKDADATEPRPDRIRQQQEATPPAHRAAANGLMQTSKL

Row | pIC50 | SMILES
1 | ≥ 7.00 | CCOc1cc(-c2ccc(F)cc2)c(C2CC2)cc1CN1CCC2(CC1)CN(c1ccc(C(=O)NCCO)cc1)C(=O)N2 [Example 69, 4-(8-((2-cyclopropyl-5-ethoxy-4′-fluoro-[1,1′-biphenyl]-4-yl)methyl)-2-oxo-1,3,8-triazaspiro[4.5]decan-3-yl)-N-(2-hydroxyethyl)benzamide]
2 | < 5.30 | CCOc1cc(C(=O)OC)c(C2CC2)cc1CN1CCC2(CC1)CC(=O)N(c1ccc(C(=O)NCCCS(=O)(=O)O)cc1)C2 [Example 30, 3-(4-(8-(5-cyclopropyl-2-ethoxy-4-(methoxycarbonyl)benzyl)-3-oxo-2,8-diazaspiro[4.5]decan-2-yl)benzamido)propane-1-sulfonic acid]
3 | 6.00 to 7.00 | CCOc1cc(C(=O)OC)c(C2CC2)cc1CN1CCC2(CC1)CC(=O)N(c1ccc(C(=O)NCCNC(N)=O)cc1)C2 [Example 38, methyl 2-cyclopropyl-5-ethoxy-4-((3-oxo-2-(4-((2-ureidoethyl)carbamoyl)phenyl)-2,8-diazaspiro[4.5]decan-8-yl)methyl)benzoate]
4 | < 5.30 | CCOc1cc(C(=O)OCc2oc(=O)oc2C)c(C2CC2)cc1CN1CCC2(CC1)CC(=O)N(c1ccc(C(=O)NC[C@H](O)[C@@H](O)[C@H](O)[C@H](O)CO)cc1)C2 [compound 24]
5 | ≥ 7.00 | CCOc1cc(C(=O)OC)c(C2CC2)cc1CN1CCC2(CC1)CN(c1ccc(C(=O)NCCCS(=O)(=O)O)cc1)C(=O)O2 [Example 58, 3-(4-(8-(5-cyclopropyl-2-ethoxy-4-(methoxycarbonyl)benzyl)-2-oxo-1-oxa-3,8-diazaspiro[4.5]decan-3-yl)benzamido)propane-1-sulfonic acid]
6 | ≥ 7.00 | CCOc1cc(C(=O)OC)c(C2CC2)cc1CN1CCC2(CC1)CN(c1ccc(C(=O)NCCCS(N)(=O)=O)cc1)C(=O)O2 [Example 59, methyl 2-cyclopropyl-5-ethoxy-4-((2-oxo-3-(4-((3-sulfamoylpropyl)carbamoyl)phenyl)-1-oxa-3,8-diazaspiro[4.5]decan-8-yl)methyl)benzoate]
7 | ≥ 7.00 | CCOc1cc(C(=O)OC)c(C2CC2)cc1CN1CCC2(CC1)CN(c1ccc(C(=O)NCCOCCO)cc1)C(=O)O2 [Example 56, methyl 2-cyclopropyl-5-ethoxy-4-((3-(4-((2-(2-hydroxyethoxy)ethyl)carbamoyl)phenyl)-2-oxo-1-oxa-3,8-diazaspiro[4.5]decan-8-yl)methyl)benzoate]
8 | 5.30 to 6.00 | CCOc1cc(CN2CCC3(CC2)CN(c2ccc(C(=O)N4CC(C(=O)NCCC[N+](C)(C)C)C4)cc2)C(=O)O3)cc(OCC)c1-c1ccc(F)cc1 [Example 8, 3-(1-(4-(8-((2,6-diethoxy-4′-fluoro-[1,1′-biphenyl]-4-yl)methyl)-2-oxo-1-oxa-3,8-diazaspiro[4.5]decan-3-yl)benzoyl)azetidine-3-carboxamido)-N,N,N-trimethylpropan-1-aminium]
9 | 6.00 to 7.00 | CCOc1cc(C(=O)OC)c(C2CC2)cc1CN1CCC2(CC1)CC(=O)N(c1ccc(C(=O)NCCNC(=O)NC(CO)(CO)CO)cc1)C2 [Example 18, methyl 2-cyclopropyl-4-((2-(4-((2-(3-(1,3-dihydroxy-2-(hydroxymethyl)propan-2-yl)ureido)ethyl)carbamoyl)phenyl)-3-oxo-2,8-diazaspiro[4.5]decan-8-yl)methyl)-5-ethoxybenzoate]
10 | 5.30 to 6.00 | CCOc1cc(C(=O)OC)c(C2CC2)cc1CN1CCC2(CC1)CC(=O)N(c1ccc(C(=O)NCCCC(=O)NCCO)cc1)C2 [Example 15, methyl 2-cyclopropyl-5-ethoxy-4-((2-(4-((4-((2-hydroxyethyl)amino)-4-oxobutyl)carbamoyl)phenyl)-3-oxo-2,8-diazaspiro[4.5]decan-8-yl)methyl)benzoate]
11 | 6.00 to 7.00 | CCOc1cc(C(=O)OC)c(C2CC2)cc1CN1CCC2(CC1)CN(c1ccc(C(=O)NCCCS(N)(=O)=O)cc1)C(=O)N2 [Example 79, methyl 2-cyclopropyl-5-ethoxy-4-((2-oxo-3-(4-((3-sulfamoylpropyl)carbamoyl)phenyl)-1,3,8-triazaspiro[4.5]decan-8-yl)methyl)benzoate]
12 | 5.30 to 6.00 | CCOc1cc(C(=O)OC)c(C2CC2)cc1CN1CCC2(CC1)CC(=O)N(c1ccc(C(=O)NC[C@H](O)[C@@H](O)[C@H](O)[C@H](O)CO)cc1)C2 [Example 37, methyl 2-cyclopropyl-5-ethoxy-4-((3-oxo-2-(4-(((2S,3R,4R,5R)-2,3,4,5,6-pentahydroxyhexyl)carbamoyl)phenyl)-2,8-diazaspiro[4.5]decan-8-yl)methyl)benzoate]
13 | ≥ 7.00 | CCOc1cc(C(=O)OC)c(C2CC2)cc1CN1CCC2(CC1)CN(c1ccc(C(=O)NC[C@H](O)[C@@H](O)[C@H](O)[C@H](O)CO)cc1)C(=O)O2 [Example 54, methyl 2-cyclopropyl-5-ethoxy-4-((2-oxo-3-(4-(((2S,3R,4R,5R)-2,3,4,5,6-pentahydroxyhexyl)carbamoyl)phenyl)-1-oxa-3,8-diazaspiro[4.5]decan-8-yl)methyl)benzoate]
14 | 6.00 to 7.00 | CCOc1cc(CN2CCC3(CC2)CN(c2ccc(C(=O)N[C@@H](CC(=O)O)C(=O)O)cc2)C(=O)O3)cc(OCC)c1-c1ccc(F)cc1 [Example 9, (4-(8-((2,6-diethoxy-4′-fluoro-[1,1′-biphenyl]-4-yl)methyl)-2-oxo-1-oxa-3,8-diazaspiro[4.5]decan-3-yl)benzoyl)-L-aspartic acid]
15 | ≥ 7.00 | CCOc1cc(-c2ccc(F)cc2)c(C2CC2)cc1CN1CCC2(CC1)CN(C13CC(C(=O)NCCOCCO)(C1)C3)C(=O)O2 [compound 92, 3-(8-((2-cyclopropyl-5-ethoxy-4′-fluoro-[1,1′-biphenyl]-4-yl)methyl)-2-oxo-1-oxa-3,8-diazaspiro [4.5]decan-3-yl)-N-(2-(2-hydroxyethoxy)ethyl)bicyclo [1.1.1] pentane-1-carboxamide]
16 | 5.30 to 6.00 | CCOc1cc(C(=O)OC)c(C2CC2)cc1CN1CCN(C(=O)Nc2ccc(C(=O)NC[C@H](O)[C@@H](O)[C@H](O)[C@H](O)CO)cc2)CC1 [compound 93, methyl 2-cyclopropyl-5-ethoxy-4-[[4-[[4-[[(2S,3R,4R,5R)-2,3,4,5,6-pentahydroxyhexyl]carbamoyl]phenyl]carbamoyl]piperazin-1-yl]methyl]benzoate]
17 | 6.00 to 7.00 | CCOc1cc(CN2CCC3(CC2)CN(c2ccc(C(=O)NCCCC(=O)NC(CO)(CO)CO)cc2)C(=O)O3)cc(OCC)c1-c1ccc(F)cc1 [Example 5]
18 | 6.00 to 7.00 | CCOc1cc(C(=O)OC)c(C2CC2)cc1CN1CCC2(CC1)CC(=O)N(c1ccc(C(=O)NC[C@@H](O)CO)cc1)C2 [Example 36, methyl (R)-2-cyclopropyl-4-((2-(4-((2,3-dihydroxypropyl)carbamoyl)phenyl)-3-oxo-2,8-diazaspiro[4.5]decan-8-yl)methyl)-5-ethoxybenzoate]
19 | ≥ 7.00 | CCOc1cc(-c2ccc(F)cc2)c(C2CC2)cc1CN1CCC2(CC1)CN(c1ccc(C(=O)NCCS(=O)(=O)O)cc1)C(=O)N2 [Example 71, 2-(4-(8-((2-cyclopropyl-5-ethoxy-4′-fluoro-[1,1′-biphenyl]-4-yl)methyl)-2-oxo-1,3,8-triazaspiro[4.5]decan-3-yl)benzamido)ethane-1-sulfonic acid]
20 | ≥ 7.00 | CCOc1cc(CN2CCC3(CC2)CN(c2ccc(C(=O)NCCCCS(=O)(=O)O)cc2)C(=O)O3)cc(OCC)c1-c1ccc(F)cc1 [Example 10, 4-(4-(8-((2,6-diethoxy-4′-fluoro-[1,1′-biphenyl]-4-yl)methyl)-2-oxo-1-oxa-3,8-diazaspiro[4.5]decan-3-yl)benzamido)butane-1-sulfonic acid]
21 | < 5.30 | CCOc1cc(C(=O)OC)c(C2CC2)cc1CN1CCC2(CC1)CC(=O)N(c1ccc(C(=O)NCCNC(=O)NCCO)cc1)C2 [compound 13, Methyl 2-cyclopropyl-5-ethoxy-4-[[2-[4-[2-(2-hydroxyethylcarbamoylamino)ethylcarbamoyl]phenyl]-3-oxo-2,8-diazaspiro[4.5]decan-8-yl]methyl]benzoate]
22 | 6.00 to 7.00 | CCOc1cc(-c2ccc(F)cn2)c(C2CC2)cc1CN1CCC2(CC1)CN([C@H]1CC[C@@](C)(C(=O)NCCOCCO)CC1)C(=O)O2 [compound 89]
23 | 5.30 to 6.00 | CCOc1cc(C(=O)OC)c(C2CC2)cc1CN1CCC2(CC1)CC(=O)N(c1ccc(C(=O)N(CCO)CCO)cc1)C2 [Example 34, methyl 4-((2-(4-(bis(2-hydroxyethyl)carbamoyl)phenyl)-3-oxo-2,8-diazaspiro[4.5]decan-8-yl)methyl)-2-cyclopropyl-5-ethoxybenzoate]

Row | SMILES | pIC50
24 | CCOc1cc(C(=O)OC)c(C2CC2)cc1CN1CCN(C(=O)Oc2ccc(C(=O)NC[C@H](O)[C@@H](O)[C@H](O)[C@H](O)CO)cc2)CC1 [Example 96] | 6.00 to 7.00
